# Paper PMC12935919 (Frontiers in Pharmacology, 2026)
# No end group written: not given here.
# Key:
# C2C12 cells [1] = assay: Myotube morphology during differentiation (microscopy, ImageJ); format: cell-based
# Description: (§1) To induce C2C12 myotube differentiation, myoblasts were seeded in 6-well plates at 5 × 10^5 cells per well. Once reaching 90% confluency, they were cultured in DMEM supplemented with 2% horse serum (Thermo Fisher Scientific) and 1% penicillin-streptomycin. […] Differentiation was observed using an optical microscope (LEICA, 100×). Myotube morphology (length and diameter) was quantified in ImageJ (NIH) using the same images: myotube length was measured by tracing the long axis of each myotube (end-to-end), and myotube diameter was measured as the short-axis width at three positions along each myotube; the mean of the three width values was recorded as the diameter. For each experimental group, three randomly captured images (fields) were analyzed, and at least 15–20 myotubes per image were quantified under identical imaging settings.
# C2C12 cells [2] = assay: Western blot of differentiation markers and myofibrillar proteins; format: cell-based
# Description: as §1
# (§2) Treated C2C12 cells (5 × 10^5 cells/well) were harvested in lysis buffer (Sigma-Aldrich, 2910) and centrifuged at 12,000 g for 10 min; proteins in the supernatant were collected. Protein concentrations were measured using the BCA Protein Assay Kit (Thermo Fisher Scientific). Each 20 μg sample was separated using 10% SDS–PAGE and transferred onto a polyvinylidene fluoride membrane (Millipore, Burlington, MA, USA). Non-specific binding was blocked with 5% non-fat dry milk for 1 h. The membranes were incubated overnight with primary antibodies: Anti-Myf5 (Abcam, ab125078), Anti-Myf6 (Abcam, ab182842), Anti-MyoD (Santa Cruz, sc-377460), Anti-MyoG (Santa Cruz, sc-52903), Anti-α-actinin (Santa Cruz, sc-17829), Anti-MYH3 (Santa Cruz, sc-53091), Anti-p-mTOR (Ser2448) (CST, #5536), Anti-p-Akt (Ser473) (CST, #9271), Anti-p-p70 S6 Kinase (Thr389) (CST, #9205), Anti-myostatin (Abcam, ab124721), Anti-atrogin-1/MAFbx (Santa Cruz, sc-166806), and Anti-MuRF1 (Santa Cruz, sc-398608). Membranes were then incubated for 1 h with HRP-conjugated secondary antibodies. Blot images were captured with the ECL system (Amersham, UK) and quantified using ImageJ.
# C2C12 myotubes = assay: DEX-induced muscle atrophy model, Western blot; format: cell-based; conditions: 10 μM DEX 24 h, alone or with 10 or 100 μM Myoki
# Description: as §1, §2
# SAMP8 mice [3] = assay: H&E myofiber area in muscle; format: in vivo, mouse; conditions: oral gavage once daily 45 weeks, 20 mg Myoki in 200 µL PBS, n = 5, vs SAMP8 group
# Description: (§3) Eight week old male senescence-accelerated mouse-prone 8 (SAMP8)/Ta Slc and senescence-accelerated mouse-resistant 1 (SAMR1)/Ta Slc mice (weighing 30 ± 2 g) were purchased from Central Lab Animal Inc. (Seoul, Korea) and housed at 24 °C in cages under a 12/12 h light/dark cycle with ad libitum access to food and water. […] Mice in all groups were dosed once daily by oral gavage for 45 weeks. […] This study was approved by the Institutional Animal Care and Use Committee (approval number CG-R22-001).
# (§4) Quadriceps (Quad) and gastrocnemius (Gas) muscle tissues were harvested and immersion-fixed in 10% neutral buffered formalin at 4 °C for 24 h. Following fixation, the tissues were dehydrated through a graded series of ethanol, cleared in xylene, and embedded in paraffin. Paraffin-embedded tissues were sectioned at a thickness of 5 μm. The tissue sections mounted on slides were deparaffinized, washed, and stained with hematoxylin (Dako, S3309) and eosin (Thermo Fisher Scientific, #6766007) (H&E). To assess the degree of muscle fibrosis, they were also stained using a Sirius Red Stain Kit (Abcam, ab150681) according to the manufacturer’s instructions. […] For each animal, three images were randomly selected from the stained sections, and the total stained area per image, rather than individual muscle fibers, was quantified using ImageJ software.
# SAMP8 mice [4] = assay: Sirius Red collagen deposition in muscle; format: in vivo, mouse; conditions: normalized to SAMR1 = 100%, oral gavage 45 weeks, 20 mg in 200 µL PBS, n = 5, mean ± SD
# Description: as §3, §4
substance,measurement,setting,value
EAEYEHL-OH [Myoki],increase in myotube length compared to the control,"C2C12 cells [1]; Day 6, 100 μM, differentiation medium (2% horse serum), mean ± SD",200% ± 33.88%
same,myotube length,"C2C12 cells [1]; Days 0-6, Myoki 1, 10 and 100 μM",increased concentration- and time-dependently
same,MYH3 protein expression,"C2C12 cells [2]; Day 3, Western blot, vs DM",significant increase
same,MyoD protein expression,"C2C12 cells [2]; Day 3, Western blot, vs DM",significant increase
same,MyoG protein expression,"C2C12 cells [2]; Day 3, Western blot, vs DM",significant increase
same,alpha-actinin protein expression,"C2C12 cells [2]; Day 3, Western blot, vs DM",significant increase
same,increase in MYH3 expression,"C2C12 cells [2]; Day 6, 100 μM, Western blot",307%
same,increase in alpha-actinin expression,"C2C12 cells [2]; Day 6, 100 μM, Western blot",818%
same,MuRF1 expression,C2C12 myotubes,significantly and dose-dependently reduced
same,atrogin-1/MAFbx expression,C2C12 myotubes,significantly and dose-dependently reduced
same,expression levels of differentiated muscle fiber structural proteins,C2C12 myotubes,dose-dependently restored toward control levels
same,"phosphorylation levels of muscle growth signaling proteins (Akt, mTOR, p70S6K)",C2C12 myotubes,dose-dependently restored toward control levels
same,"myofiber area, gastrocnemius",SAMP8 mice [3],significantly increased
same,"myofiber area, quadriceps",SAMP8 mice [3],significantly increased
same,"collagen deposition, quadriceps","SAMP8 mice [4]; untreated SAMP8 185% ± 10.61%, difference not statistically significant",151% ± 28.82%
same,"collagen deposition, gastrocnemius",SAMP8 mice [4]; untreated SAMP8 291% ± 19.72%,194% ± 22.84%
